In patent EP4570800A1, “CRYSTAL FORM OF PYRIDINOPYRIMIDINONE COMPOUND, ACID SALT THEREOF, CRYSTAL FORM OF ACID SALT THEREOF, AND USE” (Wuhan Humanwell Innovative Drug Research and Development …, priority 2022, dated 2024):
Where two headings read alike, the source gives them in different places.

Columns and labels:
H358 cells = test: Inhibition of 3D cell proliferation (3D CellTiter-Glo); format: cell-based
Description: H358 cells were seeded in a T75 culture flask, and cultured in a RPMI 1640 medium containing 10% FBS for 2 days for subsequent experiments in which the cells would be cultured or seeded on a 384-well plate.
On day 1, the cells were seeded on the 384-well plate, with 40 µL of medium added per well and serially diluted compounds or DMSO added per well, and an additional well without seeded cells but with medium was set up as a blank control. After culture at 37°C, 5% CO2 for 7 days, the plate was added with 3D CellTiter-Glo reagent (Promega, Cat. No. G9683) on day 8, shaken at 320 rpm for 20 min, and left at room temperature for 2 h. Luminescence signals were read on a multifunctional microplate reader. Cell viability inhibition rate was calculated as: [formula]
IC50 values were calculated using Graphpad 5 software.

[1] = Human liver microsome stability test; format: in vitro ADME; settings: human liver microsomes
Description: The human liver microsome stability test was performed by incubating the compound and human liver microsomes in vitro. First, the compound to be tested was prepared into a 10 mM stock solution in DMSO solvent, and then the compound was diluted to 0.5 mM with acetonitrile. Human liver microsomes (Corning) were diluted with PBS into a microsome/buffer solution, and the solution was used to dilute 0.5 mM compound into a working solution, in which the concentration of the compound was 1.5 µM, and the concentration of human liver microsomes was 0.75 mg/mL. A deep-well plate was taken, 30 µL of the working solution was added per well, and then 15 µL of pre-heated 6 mM NADPH solution was added thereto to initiate a reaction, and the reaction was incubated at 37°C. At 0, 5, 15, 30, and 45 min of the incubation, 135 µL of acetonitrile was added to the corresponding wells to terminate the reaction. After the reaction was terminated with acetonitrile at the last time point of 45 min, the deep-well plate was vortexed for 10 min (600 rpm/min), and then centrifuged for 15 min. After centrifugation, the supernatant was collected, and added with purified water in a ratio of 1:1 to perform LC-MS/MS detection. A ratio of a peak area of compound to a peak area of internal standard at each time point was obtained, and the peak area ratios of the compound at 5, 15, 30, and 45 min were compared with the peak area ratio at 0 min to calculate the remaining percentage of the compound at each time point. T1/2 was calculated by using GraphPad 5 software.

[2] = Plasma protein binding rate by equilibrium dialysis; format: in vitro ADME; settings: compound 1 µM, equilibrium dialysis 37°C
Description: Plasma protein binding rate of compounds was detected by equilibrium dialysis (HTDialysis, HTD 96b). The compound was prepared into a […] stock solution with DMSO, and then 25-fold diluted with 0.05 M sodium phosphate buffer as a working solution. A blank 96-well plate was taken and preloaded with 380 µL of plasma per well. The plasma was then added with the working solution at 20 µL/well and mixed well, with the compound at a final concentration of 1 µM, containing 0.2% DMSO per well.
100 µL of 0.05 M sodium phosphate buffer was added to the receiver-side of each dialysis chamber (HTD 96b), and then 100 µL of plasma containing the compound was added to the supply-side. The dialysis chamber was covered with a plastic lid, shaken, and incubated at 37°C for 5 h.
After incubation, 25 µL of sample was taken from each of the supply-side and the receiver-side of the dialysis chamber, and placed in the blank 96-well plate. An equal volume of plasma was added to each of the supply-side samples while an equal volume of 0.05 M sodium phosphate buffer was added to each of the receiver-side samples, and mixed well. […]
Plasma protein binding rate and free fraction were calculated using the following formulas: % binding rate = 100 × ([supply-side concentration]5h - [receiver-side concentration]5h)/[supply-side concentration]5h. % free fraction = 100 - % binding rate

[3] = Mouse pharmacokinetic test (oral gavage); format: in vivo; settings: plasma, male ICR mice, oral administration by gavage, 10 mg/kg
Description: Male ICR mice (20 to 25 g) were used, and fasted overnight. Three mice were taken and orally administered by gavage (10 mg/kg). Blood was collected before the administration, and at 15 min, 30 min, 1 h, 2 h, 4 h, 8 h, and 24 h after the administration. 6,800 g of the blood samples were centrifuged at 2 to 8°C for 6 min, and plasma was collected and stored at -80°C. The plasma at each time point was taken and added with an acetonitrile solution containing internal standard in 3 to 5 times the amount, vortexed and mixed for 1 min, and centrifuged at 13,000 rpm/min at 4°C for 10 min. The supernatant was collected, added with water in 3 times the amount, and mixed. An appropriate amount of the mixture was taken for LC-MS/MS analysis. The main pharmacokinetic parameters were analyzed using WinNonlin 7.0 software with non-compartmental model.

[4] = tested on: Mia Paca-2 pancreatic cancer; test: In vivo efficacy test on Mia Paca-2 pancreatic cancer; design: species or system mice; settings: for Average tumor weight at the end of the treatment / Tumor weight inhibition rate (relative to the vehicle group): BID
Description: (§1) After one week of adaptive feeding of mice, Mia Paca-2 cells in a logarithmic phase were resuspended in serum-free DMEM, and then mixed with Matrigel in a ratio of 1: 1. 1 × 10^7 Mia Paca-2 cells were inoculated subcutaneously at the right flank at 100 µL per mouse, and tumor growth was observed regularly. When the tumor grew to an average volume of 150 to 200 mm^3, the mice were randomly divided into a model group and an administration group (single drug, in combination with trametinib) based on the tumor size and body weight. The tumor size and body weight were measured and recorded before and during the administration. After the treatment, the tumor size in the model group was compared with that in the administration group to determine the efficacy.

LOVO colorectal cancer = test: In vivo efficacy test on LOVO colorectal cancer; design: species or system mice; settings: 50 mg/kg, BID
Description: as §1, with “LOVO” for “Mia Paca-2”, “F12K, 5” for “DMEM, and then mixed with Matrigel in a ratio of 1: 1. 1”, “10^6 LOVO” for “10^7 Mia Paca-2”, “group” for “group (single drug, in combination with trametinib)”

In the case of `Cc1nc(N[C@H](C)c2cccc(S(F)(F)(F)(F)F)c2)c2cn(C3(CF)CC3)c(=O)cc2n1` [Compound of formula I, (R)-6-(1-(fluoromethyl)cyclopropyl)-2-methyl-4-((1-(3-(pentafluorosulfanyl)phenyl)ethyl)amino)pyrido[4,3-d]pyrimidin-7(6H)-one], the IC50 (H358 cells; Homo sapiens, NCI-H358, 168 h, 3D cell proliferation in H358 cells, 7 days culture, 3D CellTiter-Glo) is reported as 11.5 nM, the “inhibitory effect on the 3D proliferation of H358 cells” value (H358 cells; summary statement) is reported as “strong inhibitory effect” and the half-life at 1 µM [1] is reported as 12.8 h. For the same compound, the “Remaining percentage (%) of compound after incubation for 30 min” value ([1]; incubation for 30 min, 37°C) was 98.7%, the fraction unbound at 5 h, 1 µM ([2]; human plasma, read-out: free fraction in plasma, Human (%)) was 0.017 and the fraction unbound at 5 h, 1 µM ([2]; mouse plasma, read-out: free fraction in plasma, Mouse (%)) was 0.011. It also gave an AUC(0-t) [3] of 3080 ng·h/mL, a Cmax [3] of 1440 ng/mL and a Tmax [3] of 1 h. The half-life [3] was 0.97 h, the “Average tumor weight at the end of the treatment” value ([4]; Mia Paca-2, 25 mg/kg) was 0.35 g and the “Tumor weight inhibition rate (relative to the vehicle group)” value ([4]; Mia Paca-2, 25 mg/kg) was 70%. For the same compound, the “Average tumor weight at the end of the treatment” value ([4]; Mia Paca-2, 50 mg/kg) was 0.27 g, the “Tumor weight inhibition rate (relative to the vehicle group)” value ([4]; Mia Paca-2, 50 mg/kg) was 76% and the “inhibitory effect on Mia Paca-2 tumor growth” value ([4]; alone (single drug)) was “significant inhibitory effect”. For the same compound, the “efficacy of combined use compared with single use” value ([4]; combination with trametinib vs single use, Mia Paca-2) was “more effective than the single use”, the “inhibitory effect on Mia Paca-2 tumor growth” value ([4]; in combination with trametinib) was “significant inhibitory effect” and the “At the end of treatment Average tumor weight” value (LOVO colorectal cancer) was 0.75 g. The “Tumor weight inhibition rate (relative to the vehicle group)” value (LOVO colorectal cancer) was 46%.
